In patent publication US20030232994A1, “Bicyclic thiophene derivatives and combinatorial libraries thereof” (priority 2001, published 2003):

Test system: Streptococcus pyogenes (ATCC# 97-03 14289)
Experiment: Anti-microbial screen (growth inhibition, OD 570 nm)
Format: cell-based
Conditions: growth in Todd Hewitt Broth, plates read at 570 nm at 0 time and 4 hours, color corrected
Method: Streptococcus pyogenes (ATCC# 97-03 14289) was grown in Todd Hewitt Broth (THB) (Difco Laboratories #0492-17-6) overnight until reaching an optical density of (OD=0.636 @ 570 nm) by reading 0.1 ml in a 96 well microtiter plate in a Molecular Devices Thermomax. This preparation was kept frozen as stocks in 30% v/v glycerol in 1.5 ml aliquots at −70^mC. until use. Prior to experiments, […] aliquots were thawed and diluted into 50 ml 2×THB. 60 ul of this dilution was added to 92 wells of microtiter plate. To three wells THB (200 ul) was added to serve as a blank and a sterility control. Test compounds in DMSO and appropriate concentrations of DMSO were added to Growth/Solvent Controls at 0 time. Plates were read at 0 time at 570 nm in the Molecular Devices plate reader to obtain compounds correction factors for insoluble or colored compounds. Plates were read again at 4 hours.
Percent inhibition is calculated with the following formulae: [drawing 4]
Color correct=O.D. 0 hr−Blank 0 hr)−(Solvent Control 0 hr−Blank 0 hr)
% Inhibition=100−O.D. test compound 4 hr−Blank 4 hr−color correct O.D. growth/solvent control 4 hr−Blank 4 hr

Row | Compound | % Inhibition [%]
1 | Cc1c(F)cccc1C(=O)N1CCc2c(sc(NC(=O)c3ccc4ccccc4c3)c2C(=O)O)C1 | 73.27
2 | CCCSc1ncccc1C(=O)N1CCc2c(sc(NC(=O)c3ccc(CC)cc3)c2C(=O)O)C1 | 92.01
3 | CSc1ccccc1C(=O)N1CCc2c(sc(NC(=O)c3ccccc3)c2C(=O)O)C1 | 79.15
4 | CC(=O)Nc1cccc(C(=O)N2CCc3c(sc(NC(=O)c4ccc(C(C)(C)C)cc4)c3C(=O)O)C2)c1 | 92.01
5 | COc1cc(Cl)ccc1C(=O)N1CCc2c(sc(NC(=O)c3ccccc3)c2C(=O)O)C1 | 81.48
6 | O=C(O)c1c(NC(=O)C2CCCCC2)sc2c1CCN(C(=O)CCc1ccc(F)c(F)c1)C2 | 66.79
7 | O=C(Nc1sc2c(c1C(=O)O)CCN(C(=O)c1cccc(Cl)c1)C2)c1c(F)cccc1F | 77.03
8 | C/C=C/C(=O)N1CCc2c(sc(NC(=O)c3ccccc3)c2C(=O)O)C1 | 94.99
9 | CC(C)C(=O)N1CCc2c(sc(NC(=O)c3ccc4ccccc4c3)c2C(=O)O)C1 | 65.78
10 | COc1cccc(C(=O)Nc2sc3c(c2C(=O)O)CCN(C(=O)c2ccccc2SC)C3)c1 | 64.5
11 | O=C(O)c1c(NC(=O)C2CCCCC2)sc2c1CCN(C(=O)c1cc3ccccc3s1)C2 | 72.52
12 | CC(C)(C)c1ccc(C(=O)Nc2sc3c(c2C(=O)O)CCN(C(=O)C2CCCCC2)C3)cc1 | 59.89
13 | CCc1ccc(C(=O)Nc2sc3c(c2C(=O)O)CCN(C(=O)c2cccc4ccccc24)C3)cc1 | 67.43
14 | O=C(Nc1sc2c(c1C(=O)O)CCN(C(=O)c1ccsc1)C2)c1ccccc1 | 93.59
15 | CC(C)(C)c1ccc(C(=O)Nc2sc3c(c2C(=O)O)CCN(C(=O)c2ccoc2)C3)cc1 | 61.2
16 | COc1cccc(C(=O)Nc2sc3c(c2C(=O)O)CCN(C(=O)c2cccc4ccccc24)C3)c1 | 82.32
17 | COc1ccccc1C(=O)Nc1sc2c(c1C(=O)O)CCN(C(=O)Cc1cc(C)ccc1C)C2 | 61.95
18 | COc1cccc(C(=O)Nc2sc3c(c2C(=O)O)CCN(C(=O)c2cc4ccccc4s2)C3)c1 | 63.77
19 | O=C(Nc1sc2c(c1C(=O)O)CCN(C(=O)c1ccc(Cl)cc1)C2)c1ccc2ccccc2c1 | 76.7
20 | O=C(Nc1sc2c(c1C(=O)O)CCN(C(=O)c1ccc(F)c(F)c1)C2)c1ccc2ccccc2c1 | 87.61
21 | CCCCOc1ccc(C(=O)Nc2sc3c(c2C(=O)O)CCN(C(=O)CC)C3)cc1 | 65.64
22 | COc1cccc(C(=O)Nc2sc3c(c2C(=O)O)CCN(C(=O)c2ccccc2C(F)(F)F)C3)c1 | 73.59
23 | CC(C)CC(=O)N1CCc2c(sc(NC(=O)c3ccccc3Cl)c2C(=O)O)C1 | 59.63
24 | Cc1ccc(C)c(CC(=O)N2CCc3c(sc(NC(=O)c4ccc(C(C)(C)C)cc4)c3C(=O)O)C2)c1 | 92.67
25 | CCc1ccc(C(=O)Nc2sc3c(c2C(=O)O)CCN(C(=O)c2ccc(C)cc2C)C3)cc1 | 85.78
26 | COc1cccc(C(=O)N2CCc3c(sc(NC(=O)[C@]45C[C@H]6C[C@@H](C[C@H](C6)C4)C5)c3C(=O)O)C2)c1OC | 68.91

Row | Compound | % Inhibition [%]
27 | CCc1ccc(C(=O)Nc2sc3c(c2C(=O)O)CCN(C(=O)c2sccc2C)C3)cc1 | 60.88
28 | O=C(Nc1sc2c(c1C(=O)O)CCN(C(=O)c1ccccc1C(F)(F)F)C2)c1ccc(Cl)cc1 | 67.09
29 | CCCSc1ncccc1C(=O)N1CCc2c(sc(NC(=O)c3ccc4ccccc4c3)c2C(=O)O)C1 | 67.03
30 | CSc1ccccc1C(=O)N1CCc2c(sc(NC(=O)c3ccccc3Cl)c2C(=O)O)C1 | 67.09
31 | CCC(=O)N1CCc2c(sc(NC(=O)C(CC)c3ccccc3)c2C(=O)O)C1 (stereo not drawn) | 60.7
32 | O=C(Nc1sc2c(c1C(=O)O)CCN(C(=O)C1CCC1)C2)c1ccc2ccccc2c1 | 59.86
33 | CC(C)CC(=O)N1CCc2c(sc(NC(=O)c3ccc(C(C)(C)C)cc3)c2C(=O)O)C1 | 64.48
34 | O=C(Nc1sc2c(c1C(=O)O)CCN(C(=O)c1ccc(F)cc1F)C2)c1ccccc1Cl | 64.7
35 | CCCc1ccc(C(=O)Nc2sc3c(c2C(=O)O)CCN(C(=O)c2ccc(Cl)cc2OC)C3)cc1 | 67.49
36 | COc1cccc(C(=O)Nc2sc3c(c2C(=O)O)CCN(C(=O)Cc2cc(C)ccc2C)C3)c1 | 62.32
37 | O=C(Nc1sc2c(c1C(=O)O)CCN(C(=O)c1ccoc1)C2)c1ccccc1 | 94.53
38 | CCc1ccc(C(=O)Nc2sc3c(c2C(=O)O)CCN(C(=O)c2ccccc2C(F)(F)F)C3)cc1 | 86.11
39 | CC(=O)Nc1ccc(C(=O)N2CCc3c(sc(NC(=O)c4ccc(C(C)(C)C)cc4)c3C(=O)O)C2)cc1 | 71.69
40 | CCCSc1ncccc1C(=O)N1CCc2c(sc(NC(=O)c3ccccc3OC)c2C(=O)O)C1 | 61.59
41 | CC(CC(=O)Nc1sc2c(c1C(=O)O)CCN(C(=O)c1cccc3ccccc13)C2)CC(C)(C)C (stereo not drawn) | 68.89
42 | CCCc1ccc(C(=O)Nc2sc3c(c2C(=O)O)CCN(C(=O)c2ccccc2C(F)(F)F)C3)cc1 | 64.51
43 | CCC(C(=O)Nc1sc2c(c1C(=O)O)CCN(C(=O)c1ccc(Cl)cc1)C2)c1ccccc1 (stereo not drawn) | 72.87
44 | O=C(Nc1sc2c(c1C(=O)O)CCN(C(=O)C1CCCCC1)C2)c1ccc(Cl)cc1 | 72.46
45 | Cn1cc(C(=O)N2CCc3c(sc(NC(=O)CCC4CCCC4)c3C(=O)O)C2)c2ccccc21 | 65.02
46 | Cc1ccc(C(=O)N2CCc3c(sc(NC(=O)c4ccc(C(C)(C)C)cc4)c3C(=O)O)C2)cn1 | 74.64
47 | O=C(CCC1CCCC1)Nc1sc2c(c1C(=O)O)CCN(C(=O)c1ccc(Cl)cc1)C2 | 66.09
48 | O=C(Nc1sc2c(c1C(=O)O)CCN(C(=O)c1ccccc1Cl)C2)c1ccco1 | 60.48
49 | CCc1ccc(C(=O)Nc2sc3c(c2C(=O)O)CCN(C(=O)C2CCCCC2)C3)cc1 | 63.5
50 | CSc1ncccc1C(=O)N1CCc2c(sc(NC(=O)c3ccco3)c2C(=O)O)C1 | 62.35
51 | Cc1ccc(C(=O)N2CCc3c(sc(NC(=O)c4ccc(Cl)cc4)c3C(=O)O)C2)cn1 | 64.41
52 | CCC(C(=O)Nc1sc2c(c1C(=O)O)CCN(C(=O)Cc1cc(C)ccc1C)C2)c1ccccc1 (stereo not drawn) | 80.75

Row | Compound | % Inhibition [%]
53 | CC(C)(C)c1ccc(C(=O)Nc2sc3c(c2C(=O)O)CCN(C(=O)C2CCC2)C3)cc1 | 98.89
54 | COc1ccc(OC)c(C(=O)N2CCc3c(sc(NC(=O)CC(C)CC(C)(C)C)c3C(=O)O)C2)c1 (stereo not drawn) | 68.17
55 | COc1cccc(C(=O)N2CCc3c(sc(NC(=O)c4ccccc4Cl)c3C(=O)O)C2)c1OC | 60.53
56 | Cc1ccc(C(=O)N2CCc3c(sc(NC(=O)c4ccccc4)c3C(=O)O)C2)cn1 | 82.41
57 | O=C(CCC1CCCC1)Nc1sc2c(c1C(=O)O)CCN(C(=O)C1CCCCC1)C2 | 65.37
58 | CCc1ccc(C(=O)Nc2sc3c(c2C(=O)O)CCN(C(=O)c2ccccc2Cl)C3)cc1 | 77.92
59 | O=C(Nc1sc2c(c1C(=O)O)CCN(C(=O)c1ccc(F)c(F)c1)C2)c1ccccc1Cl | 61.26
60 | O=C(Nc1sc2c(c1C(=O)O)CCN(C(=O)c1ccc(Cl)cc1)C2)c1ccccc1 | 87.07
61 | CSc1ccccc1C(=O)N1CCc2c(sc(NC(=O)c3ccc(Cl)cc3)c2C(=O)O)C1 | 71.86
62 | CSc1ccccc1C(=O)N1CCc2c(sc(NC(=O)c3ccc(C(C)(C)C)cc3)c2C(=O)O)C1 | 64.48
63 | CC(C)(C)c1ccc(C(=O)Nc2sc3c(c2C(=O)O)CCN(C(=O)CCc2ccc(F)c(F)c2)C3)cc1 | 69.4
64 | O=C(Nc1sc2c(c1C(=O)O)CCN(C(=O)CCc1ccc(F)c(F)c1)C2)c1ccc(Cl)cc1 | 82.59
65 | O=C(Nc1sc2c(c1C(=O)O)CCN(C(=O)CC1CCCC1)C2)c1ccco1 | 65.78
66 | O=C(O)c1c(NC(=O)[C@]23C[C@H]4C[C@@H](C[C@H](C4)C2)C3)sc2c1CCN(C(=O)c1ccccc1C(F)(F)F)C2 | 64.79
67 | CCCSc1ncccc1C(=O)N1CCc2c(sc(NC(=O)c3ccccc3)c2C(=O)O)C1 | 86.6
68 | CC(C)(C)c1ccc(C(=O)Nc2sc3c(c2C(=O)O)CCN(C(=O)CC2CCCC2)C3)cc1 | 79.23
69 | CCc1ccc(C(=O)Nc2sc3c(c2C(=O)O)CCN(C(=O)C2CCC2)C3)cc1 | 65.14
70 | COc1ccc(OC)c(C(=O)N2CCc3c(sc(NC(=O)c4ccccc4)c3C(=O)O)C2)c1 | 73.56
71 | Cc1c(F)cccc1C(=O)N1CCc2c(sc(NC(=O)c3ccccc3Cl)c2C(=O)O)C1 | 62.62
72 | CCCc1ccc(C(=O)Nc2sc3c(c2C(=O)O)CCN(C(=O)CC(C)C)C3)cc1 | 84.72
73 | Cc1ccccc1C(=O)N1CCc2c(sc(NC(=O)c3ccccc3)c2C(=O)O)C1 | 80.08
74 | CC(C)(C)c1ccc(C(=O)Nc2sc3c(c2C(=O)O)CCN(C(=O)c2ccc(Cl)cc2)C3)cc1 | 68.41
75 | O=C(CCC1CCCC1)Nc1sc2c(c1C(=O)O)CCN(C(=O)c1ccccc1C(F)(F)F)C2 | 72.86
76 | CSc1ncccc1C(=O)N1CCc2c(sc(NC(=O)c3ccc4ccccc4c3)c2C(=O)O)C1 | 64.54
77 | CCCc1ccc(C(=O)Nc2sc3c(c2C(=O)O)CCN(C(=O)C(C)C)C3)cc1 | 74.78
78 | CC(C)(C)c1ccc(C(=O)Nc2sc3c(c2C(=O)O)CCN(C(=O)c2ccccc2C(F)(F)F)C3)cc1 | 80.87
